Structures can show the parent of a compound that is named as a salt. Where two headings read alike, the source gives them in different places.
Tested on: C. elegans
Assay: microbe, parasite or virus in culture
Settings: Caenorhabditis elegans
[1] = 0 h, read-out: Percentage of motility inhibition 0 h, Table S2, C. elegans SS assay, 110 μM, 0 h, averages of 4 data points
[2] = 24 h, read-out: Percentage of motility inhibition 24 h, Table S2, C. elegans SS assay, 110 μM, 24 h, averages of 4 data points
[3] = 0 h, read-out: Percentage of motility inhibition 0 h
[4] = 24 h, read-out: Percentage of motility inhibition 24 h

Compound | inhibition at 110 µM [1] | inhibition at 110 µM [2] | inhibition at 110 µM [3] | inhibition at 110 µM [4]
O=C(/C=C/c1ccc(O)cc1)c1ccccc1 [4‐Hydroxychalcone] | 0% | 1% | – | –
COC(=O)c1c2c(c3ccccc3c1O)OC(C)(C)C=C2 [Mollugin] | 1% | 12% | – | –
Nc1ccc(S(=O)(=O)Nc2ccc(Cl)nn2)cc1 [Sulfachloropyridazine] | 14% | 0% | – | –
CC[C@@H]1CN2CC[C@]3(C(=O)Nc4ccccc43)[C@@H]2C[C@@H]1/C(=C\OC)C(=O)OC [Corynoxine B] | 5% | 20% | – | –
CSc1ccc(OCc2ncc([N+](=O)[O-])n2C)cc1 [Fexinidazole] | 11% | 29% | – | –
COc1c2ccoc2nc2c(O)cccc12 [Robustine] | 16% | 7% | – | –
O=C1C[C@@H](c2ccc(O)cc2)Oc2cc(O[C@@H]3O[C@H](CO)[C@@H](O)[C@H](O)[C@H]3O)cc(O)c21 [Prunin] | 13% | 2% | – | –
C[C@H]1[C@H](C)CC[C@]2(C(=O)O)CC[C@]3(C)C(=CC[C@@H]4[C@@]5(C)C[C@@H](O)[C@H](O)[C@@](C)(CO)[C@@H]5[C@H](O)C[C@]43C)[C@H]12 [Madecassic acid] | 1% | 31% | – | –
C[C@H](CCC(=O)NCCS(=O)(=O)O)[C@H]1CC[C@H]2[C@@H]3CC[C@@H]4C[C@H](O)CC[C@]4(C)[C@H]3C[C@H](O)[C@]12C [Taurodeoxycholic acid] | 0% | 7% | – | –
Cc1cn([C@H]2O[C@@H](CO)[C@H](O)[C@H]2F)c(=O)[nH]c1=O [Clevudine] | 2% | 0% | – | –
O=c1cc(-c2ccccc2)oc2ccc(O)cc12 [6‐Hydroxyflavone] | 14% | 2% | – | –
CCN1C[C@]2(C)CC[C@H](OC)[C@@]34C1[C@]1(OCO[C@@]15C[C@H](OC)[C@H]1C[C@]3(O)[C@@H]5[C@H]1OC)[C@@H](OC(C)=O)[C@H]24 [Deltaline] | 0% | 0% | – | –
COC(=O)/C=C/C(=O)O [Monomethyl fumarate] | 0% | 15% | – | –
COc1cc(C(=O)O[C@H]2[C@@H]3C=CO[C@@H](O[C@@H]4O[C@H](CO)[C@@H](O)[C@H](O)[C@H]4O)[C@@H]3[C@@]3(CO)O[C@@H]23)ccc1O [Picroside II] | 0% | 13% | – | –
Nc1ccc(S(=O)(=O)c2ccc(N)cc2)cc1 [Dapsone] | 42% | 24% | – | –
O=c1c(O)c(-c2ccc(O)c(O)c2)oc2cc(O[C@@H]3O[C@H](CO)[C@@H](O)[C@H](O)[C@H]3O)cc(O)c12 [Quercimeritrin] | 0% | 3% | – | –
CC[C@@]1(O)C(=O)OCc2c1cc1n(c2=O)Cc2cc3cc(O)ccc3nc2-1 [(S)‐10‐Hydroxycamptothecin] | 0% | 0% | – | –
O=C(O)CCc1nc2ccccc2[nH]1 [Procodazole] | – | – | 0% | 3%
C[C@@H]1[C@H]2c3cc4c(cc3O[C@@]35OCOC3=CC(=O)[C@H](C[C@H]1C)[C@@H]25)OCO4 [Sauchinone] | 18% | 25% | – | –
CC(C)=CCC[C@](C)(O[C@@H]1O[C@H](CO[C@@H]2O[C@@H](CO)[C@H](O)[C@H]2O)[C@@H](O)[C@H](O)[C@H]1O)[C@H]1CC[C@]2(C)[C@@H]1[C@H](O)C[C@@H]1[C@@]3(C)CC[C@H](O[C@@H]4O[C@H](CO)[C@@H](O)[C@H](O)[C@H]4O[C@@H]4O[C@H](CO)[C@@H](O)[C@H](O)[C@H]4O)C(C)(C)[C@@H]3CC[C@]12C [Ginsenoside Rc] | 0% | 0% | – | –
COP(=S)(OC)Oc1c(Cl)cc(C)cc1Cl [Tolclofos‐methyl] | 35% | 20% | – | –
CC(C)=CC/C=C(\C)[C@H]1CC[C@]2(C)[C@@H]1[C@H](O)C[C@@H]1[C@@]3(C)CC[C@H](O[C@@H]4O[C@H](CO)[C@@H](O)[C@H](O)[C@H]4O[C@@H]4O[C@H](CO)[C@@H](O)[C@H](O)[C@H]4O)C(C)(C)[C@@H]3CC[C@]12C [Ginsenoside Rg5] | 0% | 2% | – | –
CCCOC(=O)c1cc(O)c(O)c(O)c1 [Propyl gallate] | 1% | 0% | – | –
C=C[C@]12CN(C)[C@@H]3[C@H]4CO[C@H](C[C@H]41)[C@]1(C(=O)Nc4ccccc41)[C@@H]32 [Gelsemi ne] | 0% | 0% | – | –
CC(C)=CCCC(C)CCO (centres unmarked) [Citronellol] | 15% | 28% | – | –
CS(=O)(=O)c1ccc([C@@H](O)[C@@H](CO)NC(=O)C(Cl)Cl)cc1 [Thiamphenicol] | 24% | 1% | – | –
CC(C)N1CCN(c2ccc(OCC3COC(Cn4cncn4)(c4ccc(Cl)cc4Cl)O3)cc2)CC1 (centres unmarked) [Terconazole] | 26% | 3% | – | –
O=C1/C(=C/c2ccc(O)c(O)c2)COc2cc(O)ccc21 [Sappanone A] | 0% | 0% | – | –

Compound | inhibition at 110 µM [1] | inhibition at 110 µM [2] | inhibition at 110 µM [3] | inhibition at 110 µM [4]
CNC(=O)Oc1ccccc1OC(C)C [Propoxur] | 16% | 9% | – | –
NCCc1c[nH]cn1 [Histamine] | 5% | 6% | – | –
C/C=C(\C)C(=O)O[C@H]1[C@H](O)[C@]2(COC(C)=O)[C@H](O)C[C@]3(C)C(=CC[C@@H]4[C@@]5(C)CC[C@H](O[C@@H]6O[C@H](C(=O)O)[C@@H](O[C@@H]7O[C@H](CO)[C@@H](O)[C@H](O)[C@H]7O)[C@H](O)[C@H]6O[C@@H]6O[C@H](CO)[C@@H](O)[C@H](O)[C@H]6O)[C@](C)(CO)[C@@H]5CC[C@]43C)[C@@H]2CC1(C)C [Isoescin IA] | 8% | 1% | – | –
CC(C)=CCC/C(C)=C/CO [Geraniol] | 0% | 3% | – | –
Cc1c(O)c(C)c2c(c1O)C(=O)C[C@@H](c1ccc(O)cc1)O2 [Farrerol] | – | – | 6% | 9%
C=C(C)[C@@H]1CC=C2C(=CC[C@]3(C)[C@@H]([C@@H](CCC=C(C)C)C(=O)O)[C@H](O)C[C@@]23C)[C@@]1(C)CCC(=O)O [Poricoic acid B] | 14% | 0% | – | –
CC[C@H]1C[C@@H]2CN3CCc4c([nH]c5ccccc45)[C@](C(=O)OC)(C2)[C@H]13 [Coronaridine] | 0% | 5% | – | –
O=c1cc(-c2ccc(O)cc2)oc2cc(O)cc(O)c12 [Apigenin] | 12% | 3% | – | –
c1ccc2c(Cc3c[nH]c4ccccc34)c[nH]c2c1 [3,3'‐Diindolylmethane] | 0% | 7% | – | –
Nc1ccc(S(=O)(=O)Nc2ccnn2-c2ccccc2)cc1 [Sulfaphenazole] | 0% | 3% | – | –
c1ccc(-c2ccc(C(c3ccccc3)n3ccnc3)cc2)cc1 (centres unmarked) [Bifonazole] | 25% | 31% | – | –
COc1cc2c(cc1OC)-c1c(C)c3ccc(OC)c(OC)c3c[n+]1CC2 [Dehydrocorydaline] | 4% | 0% | – | –
C[C@@H](c1nc(-c2ccc(C#N)cc2)cs1)[C@](O)(Cn1cncn1)c1cc(F)ccc1F [Isavuconazole] | 25% | 0% | – | –
COC(=O)c1cc(OC)c2c(c1-c1c(CO)cc(OC)c3c1OCO3)OCO2 [Bicyclol] | 23% | 4% | – | –
COc1c(O)cc2c(c1O)[C@@H]1O[C@H](CO)[C@@H](O)[C@H](O)[C@H]1OC2=O [Bergenin] | 21% | 10% | – | –
C[C@@H]1O[C@@H](O[C@H]2[C@H](O)[C@@H](O)[C@H](OC[C@H]3O[C@@H](OC(=O)[C@]45CCC(C)(C)C[C@H]4C4=CC[C@@H]6[C@@]7(C)CC[C@H](O[C@@H]8OC[C@H](O)[C@H](O)[C@H]8O)[C@@](C)(CO)[C@@H]7CC[C@@]6(C)[C@]4(C)CC5)[C@H](O)[C@@H](O)[C@@H]3O)O[C@@H]2CO)[C@H](O)[C@H](O)[C@H]1O [Cauloside D] | 6% | 17% | – | –
Nc1ccn([C@@H]2CS[C@H](CO)O2)c(=O)n1 [Lamivudine] | 23% | 5% | – | –
OC[C@H]1NC[C@H](O)[C@@H](O)[C@@H]1O [1‐Deoxynojirimycin] | 0% | 1% | – | –
O[C@H]1[C@H](O)[C@@H](O)CN2CC[C@H](O)[C@H]12 [Castanospermine] | 0% | 0% | – | –
Clc1ccc(C(Cn2ccnc2)OCc2ccsc2Cl)c(Cl)c1 (centres unmarked) [Tioconazole] | 30% | 43% | – | –
CC(C)c1ccc2c(c1)CC[C@H]1[C@](C)(C(=O)O)CCC[C@]21C [Dehydroabietic acid] | 4% | 17% | – | –
O=c1ccc2cc3ccoc3cc2o1 [Psoralen] | – | – | 14% | 14%
COc1ccc(-c2cc(=O)c3c(O)c(OC)c(O)c(OC)c3o2)cc1 [Nevadensin] | 39% | 0% | – | –
C[C@@H]1O[C@@H](OC[C@H]2O[C@@H](Oc3cc(O)c4c(c3)O[C@H](c3ccc(O)c(O)c3)CC4=O)[C@H](O)[C@@H](O)[C@@H]2O)[C@H](O)[C@H](O)[C@H]1O [Eriocitrin] | 54% | 16% | – | –
CC1=CC(=O)CC(C)(C)[C@@]1(O)/C=C/C(C)=C\C(=O)O [Abscisic acid] | 0% | 11% | – | –
COc1cc(CNC(=O)CCCC/C=C/C(C)C)ccc1O [Capsaicin] | – | – | 0% | 0%
O=C(N[C@H](CO)[C@H](O)c1ccc([N+](=O)[O-])cc1)C(Cl)Cl [Chloramphenicol] | 6% | 2% | – | –

— PMC11855827, “High-Throughput Screening of Five Compound Libraries for Anthelmintic Activity and Toxicity Leads to the Discovery of Two Flavonoid Compounds” (International Journal of Molecular Sciences, 2025)
